molecular target: T1, recombinant human mPGES-1 (Homo sapiens, UniProt O14684); assay: Assay A: mPGES-1 enzyme assay (HTRF detection of PGE2); assay type: biochemical; settings: biological assay A (compounds 1-41, 54, 55, 62, 73); PGE2 formation from PGH2, HTRF; read-out: mPGES-1 inhibitory effect IC50
T1 sequence (O14684 1-152): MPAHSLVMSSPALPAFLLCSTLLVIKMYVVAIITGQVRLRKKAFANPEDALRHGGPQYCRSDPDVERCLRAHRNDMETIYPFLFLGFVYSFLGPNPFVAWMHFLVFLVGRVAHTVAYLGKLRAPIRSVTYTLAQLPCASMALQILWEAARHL
Excerpt: Assay A: mPGES-1 Enzyme Assay
The basis of the assay used is to measure the inhibition of microsomal prostaglandin E2 synthase-1 (mPGES-1) dependent prostaglandin (PG) E2 formation from PGH2 by different compounds. Thus, the formation of PGE2 is used as signal and a lowering of this signal can be interpreted as inhibition of mPGES-1. Similar assays to measure inhibition of mPGES-1 have previously been described in the literature.
• Glutathione (Sigma, G-4251) • Freeze culture in Rosetta E coli expression strain. • LB growth media with Ampillicillin (Amp) final concentration in culture 50 μg/mL • Chloroamphenicol stock 34 mg/mL (chloro) final concentration in culture 34 μg/mL • Sterile growth flasks for 500 mL-1 liter cultures • 0.1 M KPi buffer pH 7.4 • 9.25% HCl • PGH2 (0.25 mM) • Fe (II) Cl2 tetrahydrate, 99% (Sigma, 220229) • 384-well plate with compounds • 96-well plate, polypropylene (Thermo fast 96 skirted VWR) • 384-well plate polypropylene PCR plate (Greiner 785201) • Greiner 384-well plate pp (In vitro cat. no. 781280) • Adhesive sealing film for 96-well plates (Sigma-Aldrich) • Aluminium foil (PCR foil, 310-0030-127-471 from Labora) • PBS (GIBCO 14040) • Prostaglandin E2 Assay (Cisbio, cat. no. 62P2APEC) • Biomek FX robot (Beckman Coulter) • Biomek NX robot (Beckman Coulter) • Multidrop; micro or combi (ThermoLabsystems) • Plate reader: Safire2 (Tecan)
Microsomes from Rosetta E. coli bacteria expressing recombinant human mPGES-1 can be derived as described below:
Inoculate 5 mL LB with Amp and Chloro with bacteria from freeze culture. Incubate over night at 37° C. with 200 rpm. Thereafter, inoculate 500-800 mL LB containing Amp and Chloro with the 5 mL on culture and grow to OD640 of 0.6-0.8. Chill the culture to +4° C. before induction. Induce the culture with IPTG at a final concentration of 400 μM. Express the protein at room temp 18-23° C. with 200 rpm shaking over night.
The following steps can be performed on the following day: • 1. Spin down the cells in 250 mL centrifuge flasks for 15 min at 7000 rpm • 2. Dissolve the pellet from 250 mL culture in 12.5 mL homogenization buffer • 3. Disintegrate the cells by sonication, 4×10 seconds at 35% amplitude • 4. Add 2.5 mL MgCl2 (100 mM) and DNase 12.5 μL (0.8 mg/mL) and incubate on ice for 30 min • 5. Spin down the bacteria debris and save the supernatant, 7000 rpm for 15 min • 6. Isolate the protein containing membranes in the supernatant by ultracentrifugation 45000×g for 1 hour. • 7. Discard the supernatant and dissolve the pellet in 20 mM KPi buffer and aliquot the enzyme and store aliquots at −80° C.
Before each experiment is performed an aliquot of the enzyme is thawed and it can then be dissolved in 0.1 M KPi pH 7.4 buffer containing 2.5 mM GSH. 50 μL of this enzyme solution is subsequently dispensed in a 384-well plate at room temperature. 0.5 μL of the inhibitor dissolved in DMSO is thereafter added to each well and incubated for 25 minutes at room temperature. Subsequently, 2 μL of PGH2 dissolved in an appropriate solvent is added to each well and after one minute at room temperature, the acidified stop solution containing FeCl2 is added. 4 μL of the total volume is transferred to a separate plate and diluted 750-fold in two separate steps before quantification of PGE2.
In order to quantitate the amount of PGE2 that has been formed, a homogenous time resolved fluorescent (HTRF) detection of PGE2 can be performed by the use of a commercially available kit from CisBio essentially according to the manufacturer's protocol. […]

Row | IC50 [nM] | Compound
1 | 1 | COc1ccc(NC(=O)c2cc(CNC(=O)C(C)(C)C)ccc2Cl)cc1C(=O)Nc1ccc(Br)cc1 [Example 4, N-[4-Methoxy-3-(4-bromophenyl)aminocarbonyl-phenyl]-2-chloro-5-(tert-butylcarbonylamino)methyl-benzamide]
2 | 2 | CC(C)(C)C(=O)NCc1ccc(Cl)c(C(=O)Nc2ccc(OCC(F)F)c(C(=O)N[C@H]3CC[C@H](C(F)(F)F)CC3)c2)c1 [Example 5, N-[4-(2,2-Difluoroethyl)oxy-3-[trans-(4-trifluoromethyl-cyclohexyl)amino]carbonyl-phenyl]-2-chloro-5-(tert-butylcarbonylamino)methyl-benzamide]
3 | 2 | CC(C)(C)C(=O)NCc1ccc(Cl)c(C(=O)Nc2cnc(OCC(F)F)c(C(=O)Nc3ccc(Br)cc3)c2)c1 [Example 6, N-[2-(2,2-Difluoroethyl)oxy-3-(4-bromophenyl)aminocarbonyl-pyridin-5-yl]-2-chloro-5-(tert-butylcarbonylamino)methyl-benzamide]
4 | 4 | CC(C)(C)C(=O)NCc1ccc(Cl)c(C(=O)Nc2ccc(OCC(F)F)c(C(=O)Nc3ccc(F)c(Cl)c3)c2)c1 [Example 7, N-[4-(2,2-Difluoroethyl)oxy-3-(4-fluoro-3-chloro-phenyl)aminocarbonyl-phenyl]-2-chloro-5-(tert-butylcarbonylamino)methyl-benzamide]
5 | 7 | COc1ccc(NC(=O)c2cc(CNC(=O)C(C)(C)C)ccc2Cl)cc1C(=O)Nc1cc(C(F)(F)F)ccn1 [Example 8, N-[4-Methoxy-3-(4-trifluoromethyl-pyridin-2-yl)aminocarbonyl-phenyl]-2-chloro-5-(tert-butylcarbonylamino)methyl-benzamide]
6 | 2 | COc1ccc(NC(=O)c2cc(CNC(=O)C(C)(C)C(F)(F)F)ccc2Cl)cc1C(=O)Nc1ccc(Br)cc1 [Example 9, N-[4-Methoxy-3-(4-bromophenyl)aminocarbonyl-phenyl]-2-chloro-5-(2,2,2-trifluoro-1,1-dimethyl-ethyl)carbonylaminomethyl-benzamide]
7 | ~900 | O=C(NCc1ccc(Cl)c(C(=O)Nc2ccc(Cl)c(C(=O)NC3CC3)c2)c1)c1ccc(Cl)s1 [Example 10, N-[4-Chloro-3-cyclopropylaminocarbonyl-phenyl]-2-chloro-5-(5-chloro-thien-2-yl)carbonylaminomethyl-benzamide]
8 | 4 | CC(C)(C)C(=O)NCc1ccc(Cl)c(C(=O)Nc2ccc(OCC(F)(F)F)c(C(=O)N[C@H]3CC[C@H](C(F)(F)F)CC3)c2)c1 [Example 11]
9 | 3 | CC(C)(C)C(=O)NCc1ccc(Cl)c(C(=O)Nc2ccc(OCC(F)F)c(C(=O)NCC3CCC3)c2)c1 [Example 12]
10 | 13 | CC(C)(C)C(=O)NCc1ccc(Cl)c(C(=O)Nc2ccc(OCC(F)F)c(C(=O)NCC3CC3)c2)c1 [Example 13]
11 | 4 | CC(C)(C)C(=O)NCc1ccc(Cl)c(C(=O)Nc2ccc(OCC(F)F)c(C(=O)NCC3CC3(C)C)c2)c1 (stereo not shown) [Example 14]
12 | 2 | CC(C)(C)C(=O)NCc1ccc(Cl)c(C(=O)Nc2ccc(OCC(F)F)c(C(=O)Nc3ccc(Br)cc3)c2)c1 [Example 15]
13 | 14 | COc1ccc(NC(=O)c2cc(CNC(=O)C(C)(C)C)ccc2Cl)cc1C(=O)NCc1ccccc1C(F)(F)F [Example 16]
14 | 16 | COc1ccc(NC(=O)c2cc(CNC(=O)C(C)(C)C)ccc2Cl)cc1C(=O)NC1CCCCC1 [Example 17]
15 | 2 | COc1ccc(NC(=O)c2cc(CNC(=O)C(C)(C)C)ccc2Cl)cc1C(=O)N[C@H]1CC[C@H](C(C)(C)C)CC1 [Example 18]
16 | 4 | COc1ccc(NC(=O)c2cc(CNC(=O)C(C)(C)C)ccc2Cl)cc1C(=O)N[C@H]1CC[C@@H](C(F)(F)F)CC1 [Example 19]
17 | ~3000 | CC(C)(C)C(=O)NCc1ccc(Cl)c(C(=O)Nc2ccc(Cl)c(C(=O)NC3CC3)c2)c1 [Example 20]
18 | ~1800 | O=C(Nc1ccc(Cl)c(C(=O)NC2CC2)c1)c1cc(CNC(=O)C2CC2)ccc1Cl [Example 21]
19 | 2 | COc1ccc(NC(=O)c2cc(CNC(=O)C3(C(F)(F)F)CCCC3)ccc2Cl)cc1C(=O)Nc1ccc(Br)cc1 [Example 22]

Row | IC50 [nM] | Compound
20 | 1 | COc1ccc(NC(=O)c2cc(CNC(=O)c3c(F)ccc(F)c3Cl)ccc2Cl)cc1C(=O)Nc1ccc(Br)cc1 [Example 23]
21 | 2 | COc1ccc(NC(=O)c2cc(CNC(=O)c3cccnc3Cl)ccc2Cl)cc1C(=O)Nc1ccc(Br)cc1 [Example 24]
22 | 1 | COc1ccc(NC(=O)c2cc(CNC(=O)c3c(F)cccc3Cl)ccc2Cl)cc1C(=O)Nc1ccc(Br)cc1 [Example 25]
23 | 3 | COc1ccc(NC(=O)c2cc(CNC(=O)c3c(F)cccc3C(F)(F)F)ccc2Cl)cc1C(=O)Nc1ccc(Br)cc1 [Example 26]
24 | 2 | COc1ccc(NC(=O)c2cc(CNC(=O)C3(C)CCCCC3)ccc2Cl)cc1C(=O)Nc1ccc(Br)cc1 [Example 27]
25 | 4 | COc1ccc(NC(=O)c2cc(CNC(=O)C3(O)CC3)ccc2Cl)cc1C(=O)Nc1ccc(Br)cc1 [Example 28]
26 | 2 | COc1ccc(NC(=O)c2cc(CNC(=O)C3CCCCC3C)ccc2Cl)cc1C(=O)Nc1ccc(Br)cc1 (stereo not shown) [Example 29]
27 | 1 | COc1ccc(NC(=O)c2cc(CNC(=O)C(C)(F)F)ccc2Cl)cc1C(=O)Nc1ccc(Br)cc1 [Example 30]
28 | 2 | COc1ccc(NC(=O)c2cc(CNC(=O)C3(C(F)(F)F)CC3)ccc2Cl)cc1C(=O)Nc1ccc(Br)cc1 [Example 31]
29 | 2 | COc1ccc(NC(=O)c2cc(CNC(=O)C(C)C(F)(F)F)ccc2Cl)cc1C(=O)Nc1ccc(Br)cc1 (stereo not shown) [Example 32]
30 | 2 | COc1ccc(NC(=O)c2cc(CNC(=O)C(C)(N)C(F)(F)F)ccc2Cl)cc1C(=O)Nc1ccc(Br)cc1 (stereo not shown) [Example 33]
31 | 2 | CCC(C)(CC)C(=O)NCc1ccc(Cl)c(C(=O)Nc2ccc(OC)c(C(=O)Nc3ccc(Br)cc3)c2)c1 [Example 34]
32 | ~500 | COc1ccc(NC(=O)c2cc(CNC(=O)C(C)(C)C)ccc2Cl)cc1C(=O)NC1CC1 [Example 35]
33 | 6 | COc1ccc(NC(=O)c2cc(CNS(=O)(=O)C3CC3)ccc2Cl)cc1C(=O)Nc1ccc(Br)cc1 [Example 36, N-[4-Methoxy-3-(4-bromophenyl)aminocarbonyl-phenyl]-2-chloro-5-cyclopropylsulphonylaminomethyl-benzamide]
34 | 1 | CC1CCN(c2ccc(NC(=O)c3cc(CNC(=O)C(C)(C)C)ccc3Cl)cc2C(=O)Nc2ccc(Br)cc2)CC1 [Example 37, N-[4-(4-Methyl-piperidin-1-yl)-3-(4-bromophenyl)aminocarbonyl-phenyl]-2-chloro-5-(tert-butylcarbonylamino)methyl-benzamide]
35 | 4 | CC(C)(C)C(=O)NCc1ccc(Cl)c(C(=O)Nc2ccc(OCC3CC3)c(C(=O)N[C@H]3CC[C@H](C(F)(F)F)CC3)c2)c1 [Example 38, N-[4-(Cyclopropylmethyloxy)-3-[trans-(4-trifluoromethyl-cyclohexyl)amino]carbonyl-phenyl]-2-chloro-5-(tert-butylcarbonylamino)methyl-benzamide]
36 | 18 | CC(C)(C)C(=O)NCc1ccc(Cl)c(C(=O)Nc2ccc(F)c(C(=O)Nc3ccc(Br)cc3)c2F)c1 [Example 39]
37 | 5 | CC(C)(C)C(=O)NCc1ccc(Cl)c(C(=O)Nc2ccc(OCC(F)F)c(C(=O)NCC#Cc3ccccc3)c2)c1 [Example 40]

— US8951999B2, “Compounds” (Orexo AB, priority 2009, dated 2015)
